Like-named read-outs stand apart in the source and are kept apart here.
Assays:
[1] = tested on: BT474 and HN5 tumor cell lines; assay: Methylene blue growth inhibition assay (cellular Method A); assay type: cell-based, Human; conditions: 3 days, read-out: Activity (Method): growth inhibition IC50 class
Method: Human breast (BT474) and head and neck (HN5) were cultured in low glucose DMEM (Life Technologies 12320-032) containing 10% fetal bovine serum (FBS). Human colon tumor cells (Colo205) were cultured in DMEM (Invitrogen, 10564) containing 10% FBS. The SV40 transformed human mammary epithelial cell line HB4a was transfected with either human H-ras cDNA (HB4a r4.2) or the human c-ErbB2 cDNA (HB4a c5.2). The HB4a clones were cultured in RPMI containing 10% FBS, insulin (5 g/mL), hydrocortisone (5 g/mL), supplemented with the selection agent hygromycin B (50 g/mL). All lines were grown in a humidified incubator at 37° C. in 95% air, 5% CO2. Cells were harvested using trypsin/EDTA, counted using a haemocytometer, and plated in 100 microliters of the appropriate media, at the following densities, in a 96-well tissue culture plate (Falcon 3075): BT474 10,000 cells/well, HN5 3,000 cells/well. The next day, compounds were diluted in DMEM containing […] gentamicin, at twice the final required concentration, from 10 mM stock solutions in DMSO. 100 microliters/well of these dilutions were added to the 100 microliters of media currently on the cell plates. Medium containing 0.6% DMSO was added to control wells. Compounds diluted in DMEM were added to all cell lines. The final concentration of DMSO in all wells was 0.3%. Cells were returned to the incubator (37° C., 10% CO2) for 3 days. Medium was then removed by aspiration. Cell biomass was estimated by staining cells with 90 microliters per well methylene blue (Sigma M9140, 0.5% in 1:1 ethanol:water), and incubation at rt for at least 30 minutes. Stain was removed, and the plates rinsed by immersion in deionized water and air-dried. To release stain from the cells 100 microliters of solubilization solution was added (1% N-lauroyl sarcosine, Sodium salt, Sigma L5125, in PBS), and plates were shaken gently for about 30 minutes. Optical density at 620 nm was measured on a microplate reader. Percent inhibition of cell growth was calculated relative to vehicle treated control wells. Concentration of compound that inhibits 50% of control cell growth (IC50) was interpolated using nonlinear regression (Levenberg-Marquardt) and the equation, y=Vmax*(1−(x/(K+x)))+Y2, where “K” was equal to the IC50. Method B: Celltiter Glo® Growth Inhibition Assays

ErbB2 or EGFR = biological target: T1, ErbB2 or EGFR; assay: ErbB family substrate phosphorylation enzyme assay (HTRF), Method A or Method B; assay type: biochemical
T1 construct: enzymes purified from a baculovirus expression system; Reagent production was conducted essentially as described in Brignola, P. S., et al, (2002) J. Biol. Chem. 277(2): 1576-1585
Method: Compounds of the present invention were tested for EGFR, ErbB-2, and ErbB-4 protein tyrosine kinase inhibitory activity in substrate phosphorylation assays using enzymes purified from a baculovirus expression system. Reagent production was conducted essentially as described in Brignola, P. S., et al, (2002) J. Biol. Chem. 277(2): 1576-1585.
The method measures the ability of the isolated enzyme to catalyse the transfer of the gamma-phosphate from ATP onto the tyrosine residue of a biotinylated synthetic peptide referenced “Peptide C” in Brignola, P. S., et al, (2002) J. Biol. Chem. 277(2):1576-1585. The extent of tyrosine phosphorylation was measured using an anti-phosphotyrosine antibody, and quantified by homogenous time-resolved fluorescence (HTRF).
Reactions were performed in black 384-well polystyrene flat-bottom plates in a final volume of 20 ul. Assays were performed by adding 10 μl of each of the following solutions, substrate Mix and enzyme mix: The Substrate mix contained 100 mM 3-[N-morpholino]propanesulfonic acid (MOPS) (pH 7.5), 2 mM MnCl2, 20 μM ATP, 0.01% Tween-20, 0.1 mg/mL (BSA), 0.8 uM peptide substrate, and 1 mM dithiothreitol. The enzyme mix contained 100 mM MOPS (pH7.5); 0.01% Tween-20; 0.1 mg/mL BSA, and either 0.8 nM EGFR, 10 nM ErbB2, or 1 nM ErbB4
During the course of these studies, two separate methods have been used to measure the potency of compounds. In Method A, the substrate mix was added to the compound plates first, then the reaction was started by adding the enzyme mix. In Method B, the enzyme mix was added to the compound plates and the plates were incubated at 20° C. for 1 hour. The reactions were then started by adding the substrate mix.
After initiating the reaction with either method describe above, the reactions were allowed to proceed for 90 minutes at 20° C. The reactions were then terminated by the addition of 20 μl 100 mM EDTA to each well. 40 μl/well of HTRF detection mix were added to the assay plates. The final concentrations of the detection reagents were: 100 mM HEPES (pH7.5), 0.1 mg/mL BSA, 15 nM streptavidin-labeled allophycocyanin (PerkinElmer), and 1 nM europium-labeled anti-phosphotyrosine antibody (PerkinElmer). Assay plates were left unsealed and were counted in a Wallac Multilabel Counter 1420 (PerkinElmer).
Compounds under analysis were dissolved in Me2SO to 1.0 mM and serially diluted 1 to 3 with Me2SO through twelve dilutions. 1 μl of each concentration was transferred to the corresponding well of an assay plate. This creates a final compound concentration range from 0.00027 to 47.6 μM.
The data for dose responses were plotted as % Inhibition calculated with the data reduction formula 100*(1−(U1−C2)/(C1−C2)) versus concentration of compound where U is the unknown value, C1 is the average control value obtained for 4.76% DMSO, and C2 is the average control value obtained for 0.035 M EDTA. Data were fitted with a curve described by: y=((Vmax*x)/(K+x))+Y^2 where Vmax is the upper asymptote, Y2 is the Y intercept, and K is the IC50. The results for each compound were recorded as pIC50s, calculated as follows: pIC50=−Log 10(K)

[2] = Method A: substrate mix added first, reaction started with enzyme mix
[3] = Method B: enzyme mix pre-incubated with compound 1 hour at 20° C., started with substrate mix

Compound | IC50 ([1]; Homo sapiens, BT-474, 72 h) [nM] | Activity (Method): pIC50 class against ErbB2 or EGFR (ErbB2 or EGFR; [2]) | other results
CC(=O)Nc1cccc(Nc2nccc(-c3c(-c4cccc(NC(=O)c5c(F)cccc5F)c4)nn4ccccc34)n2)c1 [Example 36, N-{3-[3-(2-{[3-(Acetylamino)phenyl]amino}-4-pyrimidinyl)pyrazolo[1,5-a]pyridin-2-yl]phenyl}-2,6-difluorobenzamide] | < 100 | +++ (A) (at least one pIC50 measurement of greater than 7 against either ErbB2 or EGFR) | –
COc1cccc2c(-c3ccnc(Nc4cccc(C(F)(F)F)c4)n3)c(-c3cccc(NC(=O)c4c(F)cccc4F)c3)nn12 [Example 158, 2,6-Difluoro-N-{3-[7-methoxy-3-(2-{[3-(trifluoro-methyl)phenyl]amino}pyrimidin-4-yl)pyrazolo[1,5-a]pyridin-2-yl]phenyl}benzamide] | 100 to 1000 | ++ (A) (at least one pIC50 measurement greater than 6 against either ErbB2 or EGFR but no measurement greater than pIC50 of 7) | –
CN(C)CCCc1ccc(Nc2nccc(-c3c(-c4cccc(NC(=O)c5c(F)cccc5F)c4)nn4ccccc34)n2)cc1 [Example 112, N-(3-{3-[2-({4-[3-(dimethylamino)propyl]phenyl}-amino)-4-pyrimidinyl]pyrazolo[1,5-a]pyridin-2-yl}phenyl)-2,6-difluorobenzamide] | < 100 | – | Activity (Method): pIC50 class against ErbB2 or EGFR (ErbB2 or EGFR; [3]): +++ (B) (at least one pIC50 measurement of greater than 7 against either ErbB2 or EGFR)
O=C(Nc1cccc(-c2nn3ccccc3c2-c2ccnc(Nc3cccc(-c4cnco4)c3)n2)c1)c1c(F)cccc1F [Example 35, 2,6-Difluoro-N-{3-[3-(2-{[3-(1,3-oxazol-5-yl)phenyl]amino}-4-pyrimidinyl)pyrazolo[1,5-a]pyridin-2-yl]phenyl}benzamide] | < 100 | – | Activity (Method): pIC50 class against ErbB2 or EGFR (ErbB2 or EGFR; [3]): +++ (B) (at least one pIC50 measurement of greater than 7 against either ErbB2 or EGFR)
O=C(Nc1cccc(-c2nn3ccccc3c2-c2ccnc(Nc3ccccc3)n2)c1)c1cccnc1 [Example 138, N-{3-[3-(2-Phenylamino-pyrimidin-4-yl)-pyrazolo[1,5-a]pyridin-2-yl]-phenyl}-nicotinamide] | 100 to 1000 | +++ (A) (at least one pIC50 measurement of greater than 7 against either ErbB2 or EGFR) | –
O=C(Nc1cccc(-c2nn3ccccc3c2-c2ccnc(Nc3ccccc3)n2)c1)c1cccs1 [Example 139] | 100 to 1000 | ++ (A) (at least one pIC50 measurement greater than 6 against either ErbB2 or EGFR but no measurement greater than pIC50 of 7) | –
Cc1cc(C(=O)Nc2cccc(-c3nn4ccccc4c3-c3ccnc(Nc4cccc(F)c4)n3)c2)n(C)n1 [Example 23, N-[3-(3-{2-[(3-Fluorophenyl)amino]-4-pyrimidinyl}pyrazolo[1,5-a]pyridin-2-yl)phenyl]-1,3-dimethyl-1H-pyrazole-5-carboxamide] | > 1000 | – | Activity (Method): pIC50 class against ErbB2 or EGFR (ErbB2 or EGFR; [3]): ++ (B) (at least one pIC50 measurement greater than 6 against either ErbB2 or EGFR but no measurement greater than pIC50 of 7)
O=C(Cc1ccccc1)c1ccc(Nc2nccc(-c3c(-c4cccc(NC(=O)c5c(F)cccc5F)c4)nn4ccccc34)n2)cc1 [Example 102, 2,6-Difluoro-N-{3-[3-(2-{[4-(phenylacetyl)phenyl]-amino}-4-pyrimidinyl)pyrazolo[1,5-a]pyridin-2-yl]-phenyl}benzamide] | 100 to 1000 | – | –
O=C(Nc1cccc(-c2nn3ccccc3c2-c2ccnc(Nc3ccccc3)n2)c1)c1ccco1 [Example 137, Furan-2-carboxylic acid {3-[3-(2-phenylamino-pyrimidin-4-yl)-pyrazolo[1,5-a]pyridin-2-yl]-phenyl}-amide] | 100 to 1000 | +++ (A) (at least one pIC50 measurement of greater than 7 against either ErbB2 or EGFR) | –
Cc1ccc2c(-c3ccnc(Nc4cccc(F)c4)n3)c(-c3cccc(NC(=O)c4cc(F)ccc4F)c3)nn2c1 [Example 40, 2,5-Difluoro-N-[3-(3-{2-[(3-fluorophenyl)amino]-4-pyrimidinyl}-6-methylpyrazolo[1,5-a]pyridin-2-yl)phenyl]benzamide] | 100 to 1000 | – | –
Cc1nc2ccc(Nc3nccc(-c4c(-c5cccc(NC(=O)c6c(F)cccc6F)c5)nn5ccccc45)n3)cc2nc1C [Example 97, N-[3-(3-{2-[(2,3-Dimethyl-6-quinoxalinyl)amino]-4-pyrimidinyl}pyrazolo[1,5-a]pyridin-2-yl)phenyl]-2,6-difluorobenzamide] | 100 to 1000 | – | –
CC(c1cccc(Nc2nccc(-c3c(-c4cccc(NC(=O)c5c(F)cccc5F)c4)nn4ccccc34)n2)c1)S(C)(=O)=O (single isomer, unassigned) [Example 124, 2,6-Difluoro-N-(3-{3-[2-({3-[1-(methylsulfonyl)ethyl]-phenyl}amino)-4-pyrimidinyl]pyrazolo[1,5-a]pyridin-2-yl}phenyl)benzamide] | – | – | IC50 [1]: < 100 nM
O=C(Nc1cccc(-c2nn3ccccc3c2-c2ccnc(Nc3cccc(F)c3)n2)c1)c1ccccn1 [Example 76, N-[3-(3-{2-[(3-fluorophenyl)amino]-4-pyrimidinyl}pyrazolo[1,5-a]pyridin-2-yl)phenyl]-2-pyridinecarboxamide] | – | – | Activity (Method): pIC50 class against ErbB2 or EGFR (ErbB2 or EGFR; method not given): +++ (at least one pIC50 measurement of greater than 7 against either ErbB2 or EGFR)
O=C(Nc1cccc(-c2nn3ccccc3c2-c2ccnc(Nc3cccc(F)c3)n2)c1)c1ccccn1 [Example 22, Pyridine-2-carboxylic acid (3-{3-[2-(3-fluoro-phenylamino)-pyrimidin-4-yl]-pyrazolo[1,5-a]pyridin-2-yl}-phenyl)-amide] | 100 to 1000 | – | –
CC(c1cccc(Nc2nccc(-c3c(-c4cccc(NC(=O)c5c(F)cccc5F)c4)nn4ccccc34)n2)c1)S(C)(=O)=O (single isomer, unassigned) [Example 123, 2,6-Difluoro-N-(3-{3-[2-({3-[1-(methylsulfonyl)ethyl]-phenyl}amino)-4-pyrimidinyl]pyrazolo[1,5-a]pyridin-2-yl}phenyl)benzamide] | < 100 | – | –

Reference: patent US7812022B2 (GlaxoSmithKline LLC, priority 2004, dated 2010)
